Data as given in US20190008870A1, “COMPOSITIONS AND METHODS FOR LIPID METABOLISM DISORDER” (JANSFAT BIOTECHNOLOGY CO., LTD., priority 2016, published 2019).

Experiments:
[1] = tested on: eNOS; assay: IHC staining of eNOS in epididymal fat pads; format: in vivo, mice; conditions: HFD 14 weeks, KMUP-1 2.5 mg/kg/day, Control 50.5
Description: (§1) For IHC of MMP-9/TNFα, HSL/p-HSL/ATGL and eNOS/IL-10, antigen retrieval of de-paraffinated sections was performed in Dako target retrieval solution, pH 9.0, in a vegetable steamer followed by the quenching of endogenous peroxidase activity with 3.0% H2O2 in methanol. Sections were then incubated with specific primary antibodies overnight at 4° C. in a humidified chamber. The antibodies used included rabbit polyclonal anti-eNOS (1:50 dilution) (Abcam, Cambridge, UK) or rabbit monoclonal anti-cleaved caspase-3 (1:50 dilution) (Cell Signaling, U.S.A.). The sections were then examined using a DAKO REAL EnVision™ Detection System kit (DAKO, Carpinteria, Calif., U.S.A.) and counterstained with hematoxylin. Images were obtained through a Nikon Eclipse TE200-S microscope.

[2] = tested on: epididymal fat pads; assay: Epididymal fat pad weight and diameter in HFD mice; format: in vivo
Description: (§2) Mice liver and epididymal fat pads were cut and soaked in formalin, dehydrated through graded alcohols and embedded in paraffin. Specimens of liver tissues and epididymal fat pads fixed with formalin (4%) were embedded in paraffin for one hour at 4° C., cut into 4-μm-thick sections, and subjected to H&E staining before examination by light microscope.

[3] = tested on: fatty liver; assay: Gross morphology and H&E staining of liver of HFD mice; format: in vivo
Description: as §2

[4] = tested on: LDLRs; assay: IHC staining of LDLRs in livers of HFD mice; format: in vivo; conditions: HFD animals, protection and treatment groups
[5] = tested on: PKA/PKG; assay: Hepatic PKA/PKG expression in HFD mice; format: in vivo; conditions: Control printed 550%
[6] = tested on: liver fat globules; assay: Amounts and diameter of liver fat globules in IHC-stained liver sections (steatohepatitis); format: in vivo; parameters: Amounts of liver fat globules, p-HSL staining / Amounts of liver fat globules, TNF-α staining / Amounts of liver fat globules, MMP-9 staining / Amounts of liver fat globules, HSL staining / Amounts of fat globules in steatohepatitis, ATGL staining / Amounts of fat globules in steatohepatitis, CD11c-M1 staining / Amounts of fat globules in steatohepatitis, CD209a-M2 staining: unit not given here; conditions: HFD mice
Description: The diameter of the white bar in the photograph was standardized at […] for measuring the specific diameter of oil globulets in a whole liver slice, observed by microscope, with the aid of Powerpoint PC computer software (Microsoft®, U.S.A.) and printed out by a Hewlett-Packard® printer (U.S.A.). An increase in oil globulet diameter and cell number indicated increasing liver steatosis, i.e. steaotohepatitis. In contrast, decrease in diameter and the number of fat cells indicated the inhibition of steaotohepatitis. […] Hematoxylin-eosin (H&E) and IHC staining of liver were used to assess oil globulet numbers under a microscope.
as §1

[7] = Body weight and food intake of mice fed with HFD; format: in vivo
Description: In the experiment, C57BL/6J male mice (21-22 g), after fasting, were fed an HFD as a model of hyperlipidemia for 8 weeks. During the 2 month experiments, mice fasted for one night before the experiment was changed from a standard diet (STD) to an HFD and then the mice were randomly divided into 13 groups, including a protection group, 2 control and 10 treatment groups. Six mice were used in each group. […] Liver from the protection group supplemented with KMUP-1 HCl (1 mg/kg/day) were used to determine the HMG CoA reductase expression. Each group of mice had free access to drinking water from week 1 to week 14. Tap water was used to normalize mineral nutrition.
Within 2 months, the 3 day food intake average for each animal was measured. The weight gain and plasma lipid levels of each group were determined and compared to the non-treatment control group. Mouse blood was collected during the daytime by cardiac puncture followed by centrifugation at 90×g (Benchtop Centrifuge, U.S.A.) to separate the serum, and frozen at −80° C., for biochemical analysis using a Hitachi Clinical Analyzer 7070 (Hitachi High-Technologies Co. Tokyo, Japan). Agents used in the assays were obtained from Merck & Co. (Kenilworth, N.J., U.S.A.). Triglyceride (TG), total cholesterol, HDL cholesterol and LDL cholesterol in mouse serum were measured by methods used in the clinic. To measure the hepatic Triglyceride, isolated liver were cut into small chips.

[8] = tested on: TNF-α; assay: IHC staining of TNF-α in epididymal fat pads; format: in vivo, mice; conditions: HFD 14 weeks, KMUP-1 2.5 mg/kg/day, Control 36
Description: as §1

## Cn1c(=O)c2c(ncn2CCN2CCN(c3ccccc3Cl)CC2)n(C)c1=O [KMUP-1, 7-[2-[4-(2-chlorophenyl)piperazinyl]ethyl]-1,3-dimethylxanthine]
[1]
  Immunorespons percentages, eNOS: 39%
[2]; HFD mice 14 weeks, KMUP-1 2.5 mg/kg/day, Control 46
  Fat pads diameter: 28 μm
[2]; HFD mice, KMUP-1 2.5 mg/kg/day for 14 weeks, Control 165
  Weight of fat pads (R): 120 mg
[2]; HFD mice, KMUP-1 2.5 mg/kg/day for 14 weeks, Control 170
  Weight of fat pads (L): 96 mg
[3]; drinking 2.5 mg/200 ml water, protective group
  Fatty liver (gross morphology): markedly decreased
[3]; oral 2.5 mg/kg, last 6 weeks/14 weeks
  fat globules and Mallory's hyaline bodies (H&E staining of liver): reduced
[4]
  hepatic LDLRs (IHC staining): increased
[5]; drinking KMUP-1, Protection group
  PKA/PKG expression: 250%
[5]; drinking KMUP-1, Treatment group
  PKA/PKG expression: 100%
[6]; Protection group
  Amounts of fat globules in steatohepatitis, ATGL staining: 28
  Amounts of fat globules in steatohepatitis, CD11c-M1 staining: 26
  Amounts of fat globules in steatohepatitis, CD209a-M2 staining: 41
  Amounts of liver fat globules, HSL staining: 115
  Amounts of liver fat globules, MMP-9 staining: 18
  Amounts of liver fat globules, TNF-α staining: 18
  Amounts of liver fat globules, p-HSL staining: 28
  Diameter of fat globules in steatohepatitis, ATGL staining: 5.5 μm
  Diameter of fat globules in steatohepatitis, CD11c-M1 staining: 8 μm
  Diameter of fat globules in steatohepatitis, CD209a-M2 staining: 9.5 μm
  Diameter of liver fat globules, HSL staining: 9.7 μm
  Diameter of liver fat globules, MMP-9 staining: 8 μm
  Diameter of liver fat globules, TNF-α staining: 8 μm
  Diameter of liver fat globules, p-HSL staining: 3.9 μm
[6]; Treatment group
  Amounts of fat globules in steatohepatitis, ATGL staining: 46
  Amounts of fat globules in steatohepatitis, CD11c-M1 staining: 41
  Amounts of fat globules in steatohepatitis, CD209a-M2 staining: 50
  Amounts of liver fat globules, HSL staining: 116
  Amounts of liver fat globules, MMP-9 staining: 19
  Amounts of liver fat globules, TNF-α staining: 19
  Amounts of liver fat globules, p-HSL staining: 68
  Diameter of fat globules in steatohepatitis, ATGL staining: 9.8 μm
  Diameter of fat globules in steatohepatitis, CD11c-M1 staining: 15.5 μm
  Diameter of fat globules in steatohepatitis, CD209a-M2 staining: 11.8 μm
  Diameter of liver fat globules, HSL staining: 9.8 μm
  Diameter of liver fat globules, MMP-9 staining: 9 μm
  Diameter of liver fat globules, TNF-α staining: 9 μm
  Diameter of liver fat globules, p-HSL staining: 9.8 μm
[7]; HFD mice 8 weeks, KMUP-1 HCl 2.5, 5 mg/kg p.o., simvastatin 5 mg/kg p.o., compared to the control HFD group (p<0.05)
  body-weight gain: reduced
[7]; HFD mice, 2.5 mg/kg p.o.
  final BW (Body weight): 25.7 ± 0.7 g
[7]; HFD mice, 5 mg/kg p.o.
  final BW (Body weight): 24.3 ± 0.5 g
[7]; HFD mice, drinking 2.5 mg/200 ml water, protection and treatment groups
  body weight: decreased
[8]
  Immunorespons percentages, TNF-α: 22%
